Experimental data reported in ChEMBL document CHEMBL4311999, “3-Hydrazinoisatin-based benzenesulfonamides as novel carbonic anhydrase inhibitors endowed with anticancer activity: Synthesis, in vitro biological evaluation and in silico insights” (Eur J Med Chem, 2019).

Tests used:
[1] = tested on: Hs-578T; experiment: Growth inhibition of human Hs 578T cells at 10 uM incubated for 48 hrs by sulforhodamine B assay relative to control; assay type: functional; conditions: read-out: GI
[2] = tested on: NCI-H322M; experiment: Growth inhibition of human NCI-H322M cells at 10 uM incubated for 48 hrs by sulforhodamine B assay relative to control; assay type: functional; conditions: read-out: GI
[3] = tested on: UO-31; experiment: Growth inhibition of human UO31 cells at 10 uM incubated for 48 hrs by sulforhodamine B assay relative to control; assay type: functional; conditions: UO-31, 48 h, read-out: GI
[4] = target: Carbonic anhydrase 9 (Homo sapiens, UniProt Q16790); experiment: Inhibition of recombinant human carbonic anhydrase 9 preincubated for 15 mins by phenol red dye based stopped flow CO2 hydration assay
[5] = tested on: NCI-H460; experiment: Growth inhibition of human NCI-H460 cells at 10 uM incubated for 48 hrs by sulforhodamine B assay relative to control; assay type: functional; conditions: NCI-H460, 48 h, read-out: GI
[6] = tested on: CAKI-1; experiment: Growth inhibition of human Caki1 cells at 10 uM incubated for 48 hrs by sulforhodamine B assay relative to control; assay type: functional; conditions: CAKI-1, 48 h, read-out: GI
[7] = tested on: SF-539; experiment: Growth inhibition of human SF539 cells at 10 uM incubated for 48 hrs by sulforhodamine B assay relative to control; assay type: functional; conditions: SF-539, 48 h, read-out: GI
[8] = tested on: NCI-H226; experiment: Growth inhibition of human NCI-H226 cells at 10 uM incubated for 48 hrs by sulforhodamine B assay relative to control; assay type: functional; conditions: NCI-H226, 48 h, read-out: GI
[9] = tested on: MCF7; experiment: Growth inhibition of human MCF7 cells at 10 uM incubated for 48 hrs by sulforhodamine B assay relative to control; assay type: functional; conditions: MCF7, 48 h, read-out: GI
[10] = tested on: HCT-15; experiment: Growth inhibition of human HCT15 cells at 10 uM incubated for 48 hrs by sulforhodamine B assay relative to control; assay type: functional; conditions: HCT-15, 48 h, read-out: GI
[11] = target: Cyclin-dependent kinase 2/cyclin E1 (Homo sapiens, UniProt P24941); experiment: Inhibition of human recombinant CDK2/Cyclin E expressed in baculovirus infected Sf9 cells using histone H1 substrate in presence of [gamma33P]ATP
[12] = tested on: SK-OV-3; experiment: Growth inhibition of human SKOV3 cells at 10 uM incubated for 48 hrs by sulforhodamine B assay relative to control; assay type: functional; conditions: SK-OV-3, 48 h, read-out: GI
[13] = tested on: A549; experiment: Growth inhibition of human A549/ATCC cells at 10 uM incubated for 48 hrs by sulforhodamine B assay relative to control; assay type: functional; conditions: A549, 48 h, read-out: GI
[14] = tested on: OVCAR-5; experiment: Growth inhibition of human OVCAR5 cells at 10 uM incubated for 48 hrs by sulforhodamine B assay relative to control; assay type: functional; conditions: OVCAR-5, 48 h, read-out: GI
[15] = tested on: DU-145; experiment: Growth inhibition of human DU145 cells at 10 uM incubated for 48 hrs by sulforhodamine B assay relative to control; assay type: functional; conditions: DU-145, 48 h, read-out: GI
[16] = tested on: SNB-75; experiment: Growth inhibition of human SNB75 cells at 10 uM incubated for 48 hrs by sulforhodamine B assay relative to control; assay type: functional; conditions: SNB-75, 48 h, read-out: GI
[17] = tested on: MDA-MB-231; experiment: Growth inhibition of human MDA-MB-231 cells at 10 uM incubated for 48 hrs by sulforhodamine B assay relative to control; assay type: functional; conditions: MDA-MB-231, 48 h, read-out: GI
[18] = tested on: HCT-116; experiment: Growth inhibition of human HCT116 cells at 10 uM incubated for 48 hrs by sulforhodamine B assay relative to control; assay type: functional; conditions: HCT-116, 48 h, read-out: GI
[19] = tested on: SW-620; experiment: Growth inhibition of human SW620 cells at 10 uM incubated for 48 hrs by sulforhodamine B assay relative to control; assay type: functional; conditions: SW-620, 48 h, read-out: GI
[20] = tested on: NCI-H522; experiment: Growth inhibition of human NCI-H522 cells at 10 uM incubated for 48 hrs by sulforhodamine B assay relative to control; assay type: functional; conditions: NCI-H522, 48 h, read-out: GI
[21] = tested on: OVCAR-3; experiment: Growth inhibition of human OVCAR3 cells at 10 uM incubated for 48 hrs by sulforhodamine B assay relative to control; assay type: functional; conditions: OVCAR-3, 48 h, read-out: GI
[22] = tested on: OVCAR-8; experiment: Growth inhibition of human OVCAR8 cells at 10 uM incubated for 48 hrs by sulforhodamine B assay relative to control; assay type: functional; conditions: OVCAR-8, 48 h, read-out: GI
[23] = tested on: MOLT-4; experiment: Growth inhibition of human MOLT4 cells at 10 uM incubated for 48 hrs by sulforhodamine B assay relative to control; assay type: functional; conditions: MOLT-4, 48 h, read-out: GI
[24] = tested on: SN12C; experiment: Growth inhibition of human SN12C cells at 10 uM incubated for 48 hrs by sulforhodamine B assay relative to control; assay type: functional; conditions: read-out: GI
[25] = tested on: IGROV-1; experiment: Growth inhibition of human IGROV1 cells at 10 uM incubated for 48 hrs by sulforhodamine B assay relative to control; assay type: functional; conditions: IGROV-1, 48 h, read-out: GI
[26] = target: CDK9/cyclin T1 (Homo sapiens, UniProt P50750); experiment: Inhibition of human full length N-terminal GST-HIS6 fused CDK9 (M1 to F372 residues)/N-terminal HIS6-fused Cyclin-T1 (M1 to K726 residues) co-expressed in Sf9 cells using (YSPTSPS)2KK as substrate in presence of [gamma33P]ATP
[27] = target: Carbonic anhydrase 1 (Homo sapiens, UniProt P00915); experiment: Inhibition of recombinant human carbonic anhydrase 1 preincubated for 15 mins by phenol red dye based stopped flow CO2 hydration assay
[28] = tested on: ACHN; experiment: Growth inhibition of human ACHN cells at 10 uM incubated for 48 hrs by sulforhodamine B assay relative to control; assay type: functional; conditions: read-out: GI
[29] = tested on: M14; experiment: Growth inhibition of human M14 cells at 10 uM incubated for 48 hrs by sulforhodamine B assay relative to control; assay type: functional; conditions: M14, 48 h, read-out: GI
[30] = tested on: U-251; experiment: Growth inhibition of human U251 cells at 10 uM incubated for 48 hrs by sulforhodamine B assay relative to control; assay type: functional; conditions: U-251, 48 h, read-out: GI
[31] = target: Carbonic anhydrase 12 (Homo sapiens, UniProt O43570); experiment: Inhibition of recombinant human carbonic anhydrase 12 preincubated for 15 mins by phenol red dye based stopped flow CO2 hydration assay
[32] = tested on: OVCAR-4; experiment: Growth inhibition of human OVCAR4 cells at 10 uM incubated for 48 hrs by sulforhodamine B assay relative to control; assay type: functional; conditions: OVCAR-4, 48 h, read-out: GI
[33] = tested on: HOP-62; experiment: Growth inhibition of human HOP62 cells at 10 uM incubated for 48 hrs by sulforhodamine B assay relative to control; assay type: functional; conditions: HOP-62, 48 h, read-out: GI
[34] = tested on: SR; experiment: Growth inhibition of human SR cells at 10 uM incubated for 48 hrs by sulforhodamine B assay relative to control; assay type: functional; conditions: read-out: GI
[35] = tested on: Malme-3M; experiment: Growth inhibition of human MALME-3M cells at 10 uM incubated for 48 hrs by sulforhodamine B assay relative to control; assay type: functional; conditions: read-out: GI
[36] = tested on: T47D; experiment: Growth inhibition of human T47D cells at 10 uM incubated for 48 hrs by sulforhodamine B assay relative to control; assay type: functional; conditions: read-out: GI

Sequence of Carbonic anhydrase 12 (O43570 whole entry): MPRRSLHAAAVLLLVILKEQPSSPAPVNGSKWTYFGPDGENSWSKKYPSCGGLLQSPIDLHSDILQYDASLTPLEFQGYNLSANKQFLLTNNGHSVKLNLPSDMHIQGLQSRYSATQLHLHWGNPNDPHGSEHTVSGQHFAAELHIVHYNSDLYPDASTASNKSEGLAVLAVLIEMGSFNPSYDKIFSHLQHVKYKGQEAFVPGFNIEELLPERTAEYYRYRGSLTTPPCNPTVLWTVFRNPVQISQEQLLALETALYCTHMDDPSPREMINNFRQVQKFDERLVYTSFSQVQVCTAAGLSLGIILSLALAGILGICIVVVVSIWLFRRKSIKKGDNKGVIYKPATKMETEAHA
Sequence of Carbonic anhydrase 1 (P00915 whole entry): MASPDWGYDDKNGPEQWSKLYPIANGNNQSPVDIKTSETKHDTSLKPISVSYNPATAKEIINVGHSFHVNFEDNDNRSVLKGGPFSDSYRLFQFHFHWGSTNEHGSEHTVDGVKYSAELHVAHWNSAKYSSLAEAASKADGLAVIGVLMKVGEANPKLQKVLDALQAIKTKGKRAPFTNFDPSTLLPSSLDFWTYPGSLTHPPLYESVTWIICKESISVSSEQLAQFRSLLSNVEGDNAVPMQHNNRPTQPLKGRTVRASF
Sequence of CDK9/cyclin T1 (O60563 whole entry, the tested form may be a part): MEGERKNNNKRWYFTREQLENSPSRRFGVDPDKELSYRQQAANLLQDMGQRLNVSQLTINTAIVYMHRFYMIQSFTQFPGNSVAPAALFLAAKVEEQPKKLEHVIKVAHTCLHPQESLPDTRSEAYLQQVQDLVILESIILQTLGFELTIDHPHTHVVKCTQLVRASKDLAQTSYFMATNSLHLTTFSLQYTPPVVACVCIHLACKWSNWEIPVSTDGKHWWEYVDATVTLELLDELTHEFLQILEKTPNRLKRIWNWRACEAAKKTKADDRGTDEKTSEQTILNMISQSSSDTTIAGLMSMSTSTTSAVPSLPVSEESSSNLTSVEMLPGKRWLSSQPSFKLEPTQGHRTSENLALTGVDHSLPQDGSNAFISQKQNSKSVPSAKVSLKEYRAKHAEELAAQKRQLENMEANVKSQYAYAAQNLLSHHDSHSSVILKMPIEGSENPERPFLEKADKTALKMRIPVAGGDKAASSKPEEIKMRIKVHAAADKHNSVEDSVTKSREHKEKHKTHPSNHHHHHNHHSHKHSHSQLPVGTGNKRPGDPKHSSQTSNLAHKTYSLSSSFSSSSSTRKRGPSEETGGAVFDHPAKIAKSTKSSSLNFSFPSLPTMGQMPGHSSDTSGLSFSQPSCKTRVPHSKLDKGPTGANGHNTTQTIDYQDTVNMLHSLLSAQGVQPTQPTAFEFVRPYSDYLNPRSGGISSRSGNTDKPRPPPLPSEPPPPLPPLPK
Sequence of CDK9/cyclin T1 (P50750 whole entry, the tested form may be a part): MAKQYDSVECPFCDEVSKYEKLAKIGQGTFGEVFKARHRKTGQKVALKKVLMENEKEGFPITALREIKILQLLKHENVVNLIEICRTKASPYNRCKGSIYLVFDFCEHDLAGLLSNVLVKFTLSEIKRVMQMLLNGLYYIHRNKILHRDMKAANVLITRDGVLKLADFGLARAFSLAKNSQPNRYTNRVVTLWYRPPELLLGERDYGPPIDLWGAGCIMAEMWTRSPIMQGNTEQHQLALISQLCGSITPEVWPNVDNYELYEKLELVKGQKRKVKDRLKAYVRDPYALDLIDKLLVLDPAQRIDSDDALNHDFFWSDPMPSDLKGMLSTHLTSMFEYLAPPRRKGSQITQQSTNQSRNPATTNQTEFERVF

Row | Ki [4] [nM] | IC50 [11] [nM] | Compound | inhibition of growth at 10 µM [1] [%] | inhibition of growth at 10 µM [2] [%] | inhibition of growth at 10 µM [3] [%] | inhibition of growth at 10 µM [5] [%] | inhibition of growth at 10 µM [6] [%] | inhibition of growth at 10 µM [7] [%] | inhibition of growth at 10 µM [8] [%] | inhibition of growth at 10 µM [9] [%] | inhibition of growth at 10 µM [10] [%] | inhibition of growth at 10 µM [12] [%] | inhibition of growth at 10 µM [13] [%] | inhibition of growth at 10 µM [14] [%] | inhibition of growth at 10 µM [15] [%] | inhibition of growth at 10 µM [16] [%] | inhibition of growth at 10 µM [17] [%] | inhibition of growth at 10 µM [18] [%] | inhibition of growth at 10 µM [19] [%] | inhibition of growth at 10 µM [20] [%] | other results
1 | 19.6 | > 10000 | NS(=O)(=O)c1ccc(N/N=C2\C(=O)N(Cc3ccccc3)c3ccc(Cl)cc32)cc1 | 55 | 16 | 19 | 35 | 36 | 39 | 66 | 25 | 11 | 26 | 17 | 13 | 13 | 22 | 24 | 31 | 20 | 31 | inhibition of growth at 10 µM [21]: 11%; inhibition of growth at 10 µM [22]: 35%; inhibition of growth at 10 µM [23]: 28%; inhibition of growth at 10 µM [24]: 13%; inhibition of growth at 10 µM [25]: 16%; IC50 [26]: > 10000 nM; Ki [27]: 4830 nM; inhibition of growth at 10 µM [28]: 35%; inhibition of growth at 10 µM [29]: 12%; inhibition of growth at 10 µM [30]: 18%; Ki [31]: 33.7 nM; inhibition of growth at 10 µM [32]: 71%; inhibition of growth at 10 µM [33]: 36%; inhibition of growth at 10 µM [34]: 40%; inhibition of growth at 10 µM [35]: 30%; inhibition of growth at 10 µM [36]: 21%
2 | 65.4 | > 10000 | CCOC(=O)CN1C(=O)/C(=N\Nc2ccc(S(N)(=O)=O)cc2)c2cc(Br)ccc21 | 10 | 23 | 13 | 56 | 14 | 84 | 14 | 16 | 15 | 18 | 69 | 14 | 21 | 22 | 33 | 86 | 37 | 29 | inhibition of growth at 10 µM [21]: 15%; inhibition of growth at 10 µM [22]: 44%; inhibition of growth at 10 µM [23]: 23%; inhibition of growth at 10 µM [24]: 12%; inhibition of growth at 10 µM [25]: 27%; IC50 [26]: > 10000 nM; Ki [27]: > 10000 nM; inhibition of growth at 10 µM [28]: 15%; inhibition of growth at 10 µM [29]: 12%; inhibition of growth at 10 µM [30]: 14%; Ki [31]: 49.5 nM; inhibition of growth at 10 µM [32]: 69%; inhibition of growth at 10 µM [33]: 35%; inhibition of growth at 10 µM [34]: 25%; inhibition of growth at 10 µM [35]: 21%; inhibition of growth at 10 µM [36]: 22%
